Data from patent US11795171B2, “Pyrrolotriazinones and imidazotriazinones as ubiquitin-specific protease 7 inhibitors” (Valo Health, Inc., priority 2014, dated 2023).

target: USP7 (Homo sapiens (Human), UniProt Q93009); experiment: USP7 Assay B (Ubitquin-Rhodamine110 Assay); type: biochemical; conditions: Ub-Rh110 substrate 25 nM
Sequence (Q93009 208-1102): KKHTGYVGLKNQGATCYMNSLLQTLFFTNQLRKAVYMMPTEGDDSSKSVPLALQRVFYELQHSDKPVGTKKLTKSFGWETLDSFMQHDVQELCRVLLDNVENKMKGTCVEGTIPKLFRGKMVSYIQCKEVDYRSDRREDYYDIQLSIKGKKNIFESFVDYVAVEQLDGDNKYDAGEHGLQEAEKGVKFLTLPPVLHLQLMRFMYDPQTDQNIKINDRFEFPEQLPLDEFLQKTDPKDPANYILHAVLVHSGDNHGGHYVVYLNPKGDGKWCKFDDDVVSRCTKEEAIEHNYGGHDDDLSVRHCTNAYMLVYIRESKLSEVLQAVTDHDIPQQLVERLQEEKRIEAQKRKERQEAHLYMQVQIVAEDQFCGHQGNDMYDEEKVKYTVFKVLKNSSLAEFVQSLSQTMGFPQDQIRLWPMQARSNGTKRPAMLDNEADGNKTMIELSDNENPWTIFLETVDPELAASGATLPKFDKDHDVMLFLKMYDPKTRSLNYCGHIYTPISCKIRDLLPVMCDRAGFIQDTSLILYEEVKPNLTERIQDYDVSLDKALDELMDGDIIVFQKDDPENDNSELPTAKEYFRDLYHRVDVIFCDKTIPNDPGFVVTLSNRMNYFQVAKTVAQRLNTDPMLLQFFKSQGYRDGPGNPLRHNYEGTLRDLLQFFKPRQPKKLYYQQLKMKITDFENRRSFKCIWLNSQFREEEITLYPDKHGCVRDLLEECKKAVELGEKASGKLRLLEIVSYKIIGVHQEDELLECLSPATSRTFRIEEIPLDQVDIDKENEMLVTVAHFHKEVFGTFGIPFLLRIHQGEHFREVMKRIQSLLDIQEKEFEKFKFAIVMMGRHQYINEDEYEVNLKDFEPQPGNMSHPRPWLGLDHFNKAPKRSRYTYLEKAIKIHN

Structure (SMILES) | IC50 [µM]
O=C(c1ccc(Cn2nnc3ccccc32)cc1)N1CCC(O)(Cn2cnn3cccc3c2=O)CC1 [Compound I-68, 3-((1-(4-((1H-benzo[d][1,2,3]triazol-1-yl)methyl)benzoyl)-4-hydroxypiperidin-4-yl)methyl)pyrrolo[2,1-f][1,2,4]triazin-4(3H)-one] | 1 to 10
Cc1cc(C)n(Cc2ccc(C(=O)N3CCC(O)(Cn4cnn5cccc5c4=O)CC3)cc2)n1 [Compound I-69, 3-((1-(4-((3,5-dimethyl-1H-pyrazol-1-yl)methyl)benzoyl)-4-hydroxypiperidin-4-yl)methyl)pyrrolo[2,1-f][1,2,4]triazin-4(3H)-one] | 1 to 10
O=C(c1ccc(Cc2cccs2)cc1)N1CCC(O)(Cn2cnn3cccc3c2=O)CC1 [Compound I-70, 3-((4-hydroxy-1-(4-(thiophen-2-ylmethyl)benzoyl)piperidin-4-yl)methyl)pyrrolo[2,1-f][1,2,4]triazin-4(3H)-one] | 1 to 10
O=C(c1ccccc1)c1ccc(C(=O)N2CCC(O)(Cn3cnn4cccc4c3=O)CC2)cc1 [Compound I-71, 3-((1-(4-benzoylbenzoyl)-4-hydroxypiperidin-4-yl)methyl)pyrrolo[2,1-f][1,2,4]triazin-4(3H)-one] | 1 to 10
CCN(c1ccccc1)c1ccc(C(=O)N2CCC(O)(Cn3cnn4cccc4c3=O)CC2)cc1 [Compound I-72, 3-((1-(4-(ethyl(phenyl)amino)benzoyl)-4-hydroxypiperidin-4-yl)methyl)pyrrolo[2,1-f][1,2,4]triazin-4(3H)-one] | 1 to 10
N#Cc1ccc(N2CCN(C(=O)N3CCC(O)(Cn4cnn5cccc5c4=O)CC3)CC2)cc1 [Compound I-73, 4-(4-(4-hydroxy-4-((4-oxopyrrolo[2,1-f][1,2,4]triazin-3(4H)-yl)methyl)piperidine-1-carbonyl)piperazin-1-yl)benzonitrile] | > 10
CS(=O)(=O)c1ccc(N2CCN(C(=O)N3CCC(O)(Cn4cnn5cccc5c4=O)CC3)CC2)cc1 [Compound I-74, 3-((4-hydroxy-1-(4-(4-(methylsulfonyl)phenyl)piperazine-1-carbonyl)piperidin-4-yl)methyl)pyrrolo[2,1-f][1,2,4]triazin-4(3H)-one] | > 10
O=C(c1ccc(CN2CCCCC2)cc1Cl)N1CCC(O)(Cn2cnn3cccc3c2=O)CC1 [Compound I-75, 3-((1-(2-chloro-4-(piperidin-1-ylmethyl)benzoyl)-4-hydroxypiperidin-4-yl)methyl)pyrrolo[2,1-f][1,2,4]triazin-4(3H)-one] | > 10
Cc1ccc2c(=O)n(CC3(O)CCN(C(=O)CC(C)c4ccccc4)CC3)cnn12 (stereo not shown) [Compound I-76, 3-((4-hydroxy-1-(3-phenylbutanoyl)piperidin-4-yl)methyl)-7-methylpyrrolo[2,1-f][1,2,4]triazin-4(3H)-one] | 0.2 to 1
Cc1ccc2c(=O)n(CC3(O)CCN(C(=O)C(C)Cc4ccccc4)CC3)cnn12 (stereo not shown) [Compound I-77, 3-((4-hydroxy-1-(2-methyl-3-phenylpropanoyl)piperidin-4-yl)methyl)-7-methylpyrrolo[2,1-f][1,2,4]triazin-4(3H)-one] | 1 to 10
CN(C)C(=O)c1ccc(-c2ccc(C(=O)N3CCC(O)(Cn4cnn5cccc5c4=O)CC3)c(Cl)c2)cc1 [Compound I-78, 3′-chloro-4′-(4-hydroxy-4-((4-oxopyrrolo[2,1-f][1,2,4]triazin-3(4H)-yl)methyl)piperidine-1-carbonyl)-N,N-dimethyl-[1,1′-biphenyl]-4-carboxamide] | > 10
O=C(c1ccc(-c2ccc(C(=O)N3CCC(O)(Cn4cnn5cccc5c4=O)CC3)c(Cl)c2)cc1)N1CCCCC1 [Compound I-79, 3-((1-(3-chloro-4′-(piperidine-1-carbonyl)-[1,1′-biphenyl]-4-carbonyl)-4-hydroxypiperidin-4-yl)methyl)pyrrolo[2,1-f][1,2,4]triazin-4(3H)-one] | 1 to 10
O=C(c1ccc(Oc2ccccc2)cc1)N1CCC(O)(Cn2cnn3cccc3c2=O)CC1 [Compound I-80, 3-((4-hydroxy-1-(4-phenoxybenzoyl)piperidin-4-yl)methyl)pyrrolo[2,1-f][1,2,4]triazin-4(3H)-one] | > 10
CC(=O)Nc1cc2c(=O)n(CC3(O)CCN(C(=O)C[C@@H](C)c4ccccc4)CC3)cnn2c1 [Compound I-81, (R)-N-(3-((4-hydroxy-1-(3-phenylbutanoyl)piperidin-4-yl)methyl)-4-oxo-3,4-dihydropyrrolo[2,1-f][1,2,4]triazin-6-yl)acetamide] | 0.2 to 1
CNC(=O)Nc1cc2c(=O)n(CC3(O)CCN(C(=O)C[C@@H](C)c4ccccc4)CC3)cnn2c1 [Compound I-82, (R)-1-(3-((4-hydroxy-1-(3-phenylbutanoyl)piperidin-4-yl)methyl)-4-oxo-3,4-dihydropyrrolo[2,1-f][1,2,4]triazin-6-yl)-3-methylurea] | 0.2 to 1
Cc1cc2c(=O)n(CC3(O)CCN(C(=O)C(C)Cc4ccccc4)CC3)cnn2c1 (stereo not shown) [Compound I-84, 3-((4-hydroxy-1-(2-methyl-3-phenylpropanoyl)piperidin-4-yl)methyl)-6-methylpyrrolo[2,1-f][1,2,4]triazin-4(3H)-one] | 1 to 10
O=C(Nc1cccc(Cl)c1)Nc1cc2c(=O)n(CC3(O)CCN(C(=O)C4CC4)CC3)cnn2c1 [Compound I-85, 1-(3-chlorophenyl)-3-(3-((1-(cyclopropanecarbonyl)-4-hydroxypiperidin-4-yl)methyl)-4-oxo-3,4-dihydropyrrolo[2,1-f][1,2,4]triazin-6-yl)urea] | > 10
Cc1cccc(NC(=O)Nc2cc3c(=O)n(CC4(O)CCN(C(=O)C5CC5)CC4)cnn3c2)c1 [Compound I-86, 1-(3-((1-(cyclopropanecarbonyl)-4-hydroxypiperidin-4-yl)methyl)-4-oxo-3,4-dihydropyrrolo[2,1-f][1,2,4]triazin-6-yl)-3-(m-tolyl)urea] | > 10
O=C(NCc1ccc(F)cc1)Nc1cc2c(=O)n(CC3(O)CCN(C(=O)C4CC4)CC3)cnn2c1 [Compound I-87, 1-(3-((1-(cyclopropanecarbonyl)-4-hydroxypiperidin-4-yl)methyl)-4-oxo-3,4-dihydropyrrolo[2,1-f][1,2,4]triazin-6-yl)-3-(4-fluorobenzyl)urea] | > 10
O=C(Nc1ccc(F)cc1)Nc1cc2c(=O)n(CC3(O)CCN(C(=O)C4CC4)CC3)cnn2c1 [Compound I-88, 1-(3-((1-(cyclopropanecarbonyl)-4-hydroxypiperidin-4-yl)methyl)-4-oxo-3,4-dihydropyrrolo[2,1-f][1,2,4]triazin-6-yl)-3-(4-fluorophenyl)urea] | > 10
Cc1ccc(NC(=O)Nc2cc3c(=O)n(CC4(O)CCN(C(=O)C5CC5)CC4)cnn3c2)cc1 [Compound I-89, 1-(3-((1-(cyclopropanecarbonyl)-4-hydroxypiperidin-4-yl)methyl)-4-oxo-3,4-dihydropyrrolo[2,1-f][1,2,4]triazin-6-yl)-3-(p-tolyl)urea] | > 10
O=C(Nc1ccc2c(c1)CCC2)Nc1cc2c(=O)n(CC3(O)CCN(C(=O)C4CC4)CC3)cnn2c1 [Compound I-90, 1-(3-((1-(cyclopropanecarbonyl)-4-hydroxypiperidin-4-yl)methyl)-4-oxo-3,4-dihydropyrrolo[2,1-f][1,2,4]triazin-6-yl)-3-(2,3-dihydro-1H-inden-5-yl)urea] | > 10
